Reference: patent US20250250230A1, “HETEROCYCLIC COMPOUND” (TAKEDA PHARMACEUTICAL COMPANY LIMITED, priority 2022, published 2025)

Target: T1, human orexin type 2 receptor (Homo sapiens, UniProt O43614)
T1 construct: expressed in transfected cells
T1 sequence (O43614 1-444): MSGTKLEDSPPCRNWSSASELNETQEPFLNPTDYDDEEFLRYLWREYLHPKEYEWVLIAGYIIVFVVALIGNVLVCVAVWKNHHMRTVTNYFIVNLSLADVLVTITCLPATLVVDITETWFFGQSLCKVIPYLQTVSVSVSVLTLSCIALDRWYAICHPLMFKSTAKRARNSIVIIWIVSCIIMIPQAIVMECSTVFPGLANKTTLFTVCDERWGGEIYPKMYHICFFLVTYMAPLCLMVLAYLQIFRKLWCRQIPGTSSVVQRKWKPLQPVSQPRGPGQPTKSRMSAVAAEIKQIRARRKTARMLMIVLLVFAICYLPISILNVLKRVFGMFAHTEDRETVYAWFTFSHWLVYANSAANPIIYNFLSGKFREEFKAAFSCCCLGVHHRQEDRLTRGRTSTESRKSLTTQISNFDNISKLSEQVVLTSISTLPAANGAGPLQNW
Assay: Measurement of orexin type 2 receptor agonist activity (calcium fluorescence, Fluo-4 AM, FDSS)
Assay type: cell-based
Details: test compound 3 μM; CHO cells expressing human OX2 receptor; DMSO = 0%, orexin A (human) = 100%
Procedure, shortened: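 Agonist response scaled between vehicle (0%) and human orexin A at 10 nM final (100%), from 2-min kinetic Fluo-4 fluorescence reads. Stable hOX2R CHO-K1 clone, dye-loaded in HBSS/20 mM HEPES/0.1% BSA with 1.25 mM probenecid before compound addition.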

SMILES | OX2R agonist activity (3 μM, %)
O=C([C@@H]1C[C@H]1c1ccccc1-c1c(F)cccc1F)N1CC[C@H](NS(=O)(=O)N2CCC2)C1 [Example 326, N-{(3S)-1-[(1R,2R)-2-(2′,6′-difluoro[1,1′-biphenyl]-2-yl)cyclopropane-1-carbonyl]pyrrolidin-3-yl}azetidine-1-sulfonamide] | 89%
CC1(C(=O)N2CCC2CNS(C)(=O)=O)CC1c1ccccc1-c1c(F)cccc1F (stereo not drawn) [Example 327, N-({1-[2-(2′,6′-difluoro[1,1′-biphenyl]-2-yl)-1-methylcyclopropane-1-carbonyl]azetidin-2-yl}methyl)methanesulfonamide optical isomer] | 100%
O=C([C@@H]1C[C@H]1c1ccccc1-c1c(F)cccc1F)N1CC[C@H]1CNS(=O)(=O)N1CCC1 [Example 334, N-({(2S)-1-[(1R,2R)-2-(2′,6′-difluoro[1,1′-biphenyl]-2-yl)cyclopropane-1-carbonyl]azetidin-2-yl}methyl)azetidine-1-sulfonamide] | 96%
CNS(=O)(=O)N[C@H]1CCN(C(=O)[C@@H]2C[C@H]2c2ccccc2-c2c(F)cccc2F)C1 [Example 335, N-{(3S)-1-[(1R,2R)-2-(2′,6′-difluoro[1,1′-biphenyl]-2-yl)cyclopropane-1-carbonyl]pyrrolidin-3-yl}-N′-methylsulfuric diamide] | 96%
CNS(=O)(=O)NC[C@@H]1CN(C(=O)[C@@H]2C[C@H]2c2ccccc2-c2c(F)cccc2F)CCO1 [Example 337, N-({(2S)-4-[(1R,2R)-2-(2′,6′-difluoro[1,1′-biphenyl]-2-yl)cyclopropane-1-carbonyl]morpholin-2-yl}methyl)-N′-methylsulfuric diamide] | 100%
O=C([C@@H]1C[C@H]1c1ccccc1-c1c(F)cccc1F)N1CCO[C@H](CNS(=O)(=O)N2CCC2)C1 [Example 338, N-({(2S)-4-[(1R,2R)-2-(2′,6′-difluoro[1,1′-biphenyl]-2-yl)cyclopropane-1-carbonyl]morpholin-2-yl}methyl)azetidine-1-sulfonamide] | 98%
CNS(=O)(=O)NC[C@@H]1CCN1C(=O)[C@@H]1C[C@H]1c1ccccc1-c1c(F)cccc1F [Example 339, N-({(2S)-1-[(1R,2R)-2-(2′,6′-difluoro[1,1′-biphenyl]-2-yl)cyclopropane-1-carbonyl]azetidin-2-yl}methyl)-N′-methylsulfuric diamide] | 103%
CS(=O)(=O)NC1(CF)CCN(C(=O)[C@@H]2C[C@H]2c2ccccc2-c2c(F)cccc2F)C1 (stereo partly drawn) [Example 342, N-[(3R)-1-[(1R,2R)-2-(2′,6′-difluoro[1,1′-biphenyl]-2-yl)cyclopropane-1-carbonyl]-3-(fluoromethyl)pyrrolidin-3-yl]methanesulfonamide, or N-[(3S)-1-[(1R,2R)-2-(2′,6′-difluoro[1,1′-biphenyl]-2-yl)cyclopropane-1-carbonyl]-3-(fluoromethyl)pyrrolidin-3-yl]methanesulfonamide] | 101%
COCC1(C(=O)N2CC[C@H](NS(C)(=O)=O)C2)CC1c1ccccc1-c1c(F)cccc1F (stereo partly drawn) [Example 346, N-{(3S)-1-[(1R,2S)-2-(2′,6′-difluoro[1,1′-biphenyl]-2-yl)-1-(methoxymethyl)cyclopropane-1-carbonyl]pyrrolidin-3-yl}methanesulfonamide, or N-{(3S)-1-[(1S,2R)-2-(2′,6′-difluoro[1,1′-biphenyl]-2-yl)-1-(methoxymethyl)cyclopropane-1-carbonyl]pyrrolidin-3-yl}methanesulfonamide] | 100%
COCC1(C(=O)N2CC[C@H]2CNS(C)(=O)=O)CC1c1ccccc1-c1c(F)cccc1F (stereo partly drawn) [Example 347, N-({(2S)-1-[(1R,2S)-2-(2′,6′-difluoro[1,1′-biphenyl]-2-yl)-1-(methoxymethyl)cyclopropane-1-carbonyl]azetidin-2-yl}methyl)methanesulfonamide, or N-({(2S)-1-[(1S,2R)-2-(2′,6′-difluoro[1,1′-biphenyl]-2-yl)-1-(methoxymethyl)cyclopropane-1-carbonyl]azetidin-2-yl}methyl)methanesulfonamide] | 95%

Next, values leading:

OX2R agonist activity (3 μM, %) | SMILES
96% | CS(=O)(=O)N[C@H]1CCN(C(=O)C2(F)CC2c2ccccc2-c2c(F)cccc2F)C1 (stereo partly drawn) [Example 324, N-{(3S)-1-[(1R,2R)-2-(2′,6′-difluoro[1,1′-biphenyl]-2-yl)-1-fluorocyclopropane-1-carbonyl]pyrrolidin-3-yl}methanesulfonamide, or N-{(3S)-1-[(1S,2S)-2-(2′,6′-difluoro[1,1′-biphenyl]-2-yl)-1-fluorocyclopropane-1-carbonyl]pyrrolidin-3-yl}methanesulfonamide]
96% | CS(=O)(=O)N[C@H]1CCCN(C(=O)C2(F)CC2c2ccccc2-c2c(F)cccc2F)C1 (stereo partly drawn) [Example 325, N-{(3S)-1-[(1R,2R)-2-(2′,6′-difluoro[1,1′-biphenyl]-2-yl)-1-fluorocyclopropane-1-carbonyl]piperidin-3-yl}methanesulfonamide, or N-{(3S)-1-[(1S,2S)-2-(2′,6′-difluoro[1,1′-biphenyl]-2-yl)-1-fluorocyclopropane-1-carbonyl]piperidin-3-yl}methanesulfonamide]
94% | CS(=O)(=O)N[C@H]1CCN(C(=O)C2C(c3ccccc3-c3c(F)cccc3F)C2(F)F)C1 (stereo partly drawn) [Example 328, N-{(3S)-1-[(1R,3R)-3-(2′,6′-difluoro[1,1′-biphenyl]-2-yl)-2,2-difluorocyclopropane-1-carbonyl]pyrrolidin-3-yl}methanesulfonamide, or N-{(3S)-1-[(1R,3R)-3-(2′,6′-difluoro[1,1′-biphenyl]-2-yl)-2,2-difluorocyclopropane-1-carbonyl]pyrrolidin-3-yl}methanesulfonamide]
91% | CS(=O)(=O)N[C@H]1CCCN(C(=O)C2C(c3ccccc3-c3c(F)cccc3F)C2(F)F)C1 (stereo partly drawn) [Example 330, N-{(3S)-1-[(1R,3R)-3-(2′,6′-difluoro[1,1′-biphenyl]-2-yl)-2,2-difluorocyclopropane-1-carbonyl]piperidin-3-yl}methanesulfonamide, or N-{(3S)-1-[(1S,3S)-3-(2′,6′-difluoro[1,1′-biphenyl]-2-yl)-2,2-difluorocyclopropane-1-carbonyl]piperidin-3-yl}methanesulfonamide]
96% | CS(=O)(=O)NC1CN(C(=O)[C@@H]2C[C@@]2(F)c2ccccc2-c2c(F)cccc2F)CC1(F)F (stereo partly drawn) [Example 331, N-{(3R)-1-[(1S,2S)-2-(2′,6′-difluoro[1,1′-biphenyl]-2-yl)-2-fluorocyclopropane-1-carbonyl]-4,4-difluoropyrrolidin-3-yl}methanesulfonamide, or N-{(3S)-1-[(1S,2S)-2-(2′,6′-difluoro[1,1′-biphenyl]-2-yl)-2-fluorocyclopropane-1-carbonyl]-4,4-difluoropyrrolidin-3-yl}methanesulfonamide]
95% | CS(=O)(=O)N[C@H]1C[C@H](O)CN(C(=O)[C@@H]2C[C@@]2(F)c2ccccc2-c2c(F)cccc2F)C1 [Example 332, N-{(3S,5S)-1-[(1S,2S)-2-(2′,6′-difluoro[1,1′-biphenyl]-2-yl)-2-fluorocyclopropane-1-carbonyl]-5-hydroxypiperidin-3-yl}methanesulfonamide]
99% | CS(=O)(=O)N[C@@H]1CN(C(=O)[C@@H]2C[C@@]2(F)c2ccccc2-c2c(F)cccc2F)CCC1(F)F [Example 333, N-{(3R)-1-[(1S,2S)-2-(2′,6′-difluoro[1,1′-biphenyl]-2-yl)-2-fluorocyclopropane-1-carbonyl]-4,4-difluoropiperidin-3-yl}methanesulfonamide]
94% | CS(=O)(=O)NC1CCC2CN(C(=O)[C@@H]3C[C@H]3c3ccccc3-c3c(F)cccc3F)CC21F (stereo partly drawn) [Example 340, N-{(3aR,4R,6aS)-2-[(1R,2R)-2-(2′,6′-difluoro[1,1′-biphenyl]-2-yl)cyclopropane-1-carbonyl]-3a-fluorooctahydrocyclopenta[c]pyrrol-4-yl}methanesulfonamide, or N-{(3aS,4S,6aR)-2-[(1R,2R)-2-(2′,6′-difluoro[1,1′-biphenyl]-2-yl)cyclopropane-1-carbonyl]-3a-fluorooctahydrocyclopenta[c]pyrrol-4-yl}methanesulfonamide]
101% | CS(=O)(=O)N[C@H]1C[C@@H](O)CN(C(=O)[C@@H]2C[C@@]2(F)c2ccccc2-c2c(F)cccc2F)C1 [Example 341, N-{(3S,5R)-1-[(1S,2S)-2-(2′,6′-difluoro[1,1′-biphenyl]-2-yl)-2-fluorocyclopropane-1-carbonyl]-5-hydroxypiperidin-3-yl}methanesulfonamide]
95% | CC1(NS(C)(=O)=O)CCN(C(=O)[C@@H]2C[C@@]2(F)c2ccccc2-c2c(F)cccc2F)C1 (stereo partly drawn) [Example 344, N-{(3R)-1-[(1S,2S)-2-(2′,6′-difluoro[1,1′-biphenyl]-2-yl)-2-fluorocyclopropane-1-carbonyl]-3-methylpyrrolidin-3-yl}methanesulfonamide, or N-{(3S)-1-[(1S,2S)-2-(2′,6′-difluoro[1,1′-biphenyl]-2-yl)-2-fluorocyclopropane-1-carbonyl]-3-methylpyrrolidin-3-yl}methanesulfonamide]
